Measured values taken from patent US20260216123A1, “PHARMACEUTICAL COMPOSITION FOR PREVENTING OR TREATING DEGENERATIVE OSTEOARTHRITIS” (GLACEUM INC., priority 2023, published 2026).

Experiments:
Type in all cases: in vivo
MCP-1 = assay: Immunohistochemical analysis of knee joint tissue in MIA-OA animal model: MCP-1; conditions: MIA-OA rat; immunohistochemistry; FIG. 6
Experimental: (§1) All animals were allowed to acclimatize for one week after introduction to the laboratory environment. On the day of the start of the experiment, monosodium iodoacetate (MIA, Sigma, Cat. No. 12512) was dissolved in saline for injection at a concentration of 30 mg/mL, and 50 μL of the solution was administered once on the day of the start of the experiment. The animals were divided into groups as follows. The animals were randomly distributed so that the average of each group was distributed as evenly as possible according to the pain threshold evaluation values ranked, so as to obtain the number specified in the “Constitution of Test Groups” table. Individual identification was done by writing numbers directly on the tails of the animals. Individual identification cards of different colors were attached to the housing boxes according to each dose. An animal room usage record sheet containing the test number, animal room usage period, principal investigator name, subinvestigator name, emergency contact information, etc. was attached to the animal room entrance. […]
(§2) The histopathological analysis of knee joint tissue was performed using the same model as that in Experimental Example 1. […] Then, the Dab-positive area expressing each cytokine in the synovium was extracted using ImageJ software (Wayne Rasband, NIH, USA) and expressed as a percentage relative to the total nuclear area.

MIA-induced OA rat model [1] = assay: Weight bearing (incapacitance meter) in MIA-induced OA rat model; conditions: FIG. 2
Experimental: All animals were allowed to acclimatize for one week after introduction to the laboratory environment. On the day of the start of the experiment, monosodium iodoacetate (MIA, Sigma, Cat. No. 12512) was dissolved in saline for injection at a concentration of 30 mg/mL, and 50 μL of the solution was administered once on the day of the start of the experiment. The animals were divided into groups as follows. The animals were randomly distributed so that the average of each group was distributed as evenly as possible according to the pain threshold evaluation values ranked, so as to obtain the number specified in the “Constitution of Test Groups” table. Individual identification was done by writing numbers directly on the tails of the animals. […]
Weight bearing was measured using the same model as that in Experimental Example 1. […] The weight bearing of each hind paw was measured using an incapacitance meter (Model 600, IITC, USA), a device for measuring weight bearing. […]
When each animal was correctly positioned in the holder, the machine was operated, the measurement time was set to 5 seconds, and a total of two measurements were taken and averaged to determine the weight bearing (g) of each paw. […] The results of the weight-bearing measurement test were converted into weight bearing ratio using the following calculation formula and analyzed.

MIA-induced OA rat model [2] = assay: Pain suppression (nociceptive pain threshold, dynamic plantar aesthesiometer) in MIA-induced OA rat model; conditions: FIG. 1
Experimental: All animals were allowed to acclimatize for one week after introduction to the laboratory environment. On the day of the start of the experiment, monosodium iodoacetate (MIA, Sigma, Cat. No. 12512) was dissolved in saline for injection at a concentration of 30 mg/mL, and 50 μL of the solution was administered once on the day of the start of the experiment. The animals were divided into groups as follows. The animals were randomly distributed so that the average of each group was distributed as evenly as possible according to the pain threshold evaluation values ranked, so as to obtain the number specified in the “Constitution of Test Groups” table. Individual identification was done by writing numbers directly on the tails of the animals. Individual identification cards of different colors were attached to the housing boxes according to each dose. […]
The nociceptive pain threshold (g) was measured using a dynamic plantar aesthesiometer (Ugo Basile, 37400, Comerio, Italy), a device in which the force applied to the animal's paw gradually increases over a certain period of time. […] The results for the nociceptive pain threshold were calculated as paw withdrawal latency (sec) and paw withdrawal threshold (g).

RIPK3 = assay: Immunohistochemical analysis of knee joint tissue in MIA-OA animal model: RIPK3; conditions: MIA-OA rat; immunohistochemistry; FIG. 8
Experimental: as §1, §2

IL-6 = assay: Immunohistochemical analysis of knee joint tissue in MIA-OA animal model: IL-6; conditions: MIA-OA rat; immunohistochemistry; FIG. 5
Experimental: as §1, §2

MMP3 = assay: Immunohistochemical analysis of knee joint tissue in MIA-OA animal model: MMP3; conditions: MIA-OA rat; immunohistochemistry; FIG. 7
Experimental: as §1, §2

[3] = system: knee joint tissue of MIA-OA rat model; assay: Histopathological analysis of knee joint tissue (Safranin O staining, OARSI and Mankin scores) in MIA-OA animal model
Experimental: All animals were allowed to acclimatize for one week after introduction to the laboratory environment. On the day of the start of the experiment, monosodium iodoacetate (MIA, Sigma, Cat. No. 12512) was dissolved in saline for injection at a concentration of 30 mg/mL, and 50 μL of the solution was administered once on the day of the start of the experiment. The animals were divided into groups as follows. The animals were randomly distributed so that the average of each group was distributed as evenly as possible according to the pain threshold evaluation values ranked, so as to obtain the number specified in the “Constitution of Test Groups” table. Individual identification was done by writing numbers directly on the tails of the animals. Individual identification cards of different colors were attached to the housing boxes according to each dose. An animal room usage record sheet containing the test number, animal room usage period, principal investigator name, subinvestigator name, emergency contact information, etc. was attached to the animal room entrance. The test groups consisted of WT, vehicle, 25 mg/kg Compound 2, and 50 mg/kg Compound 2, respectively, which were administered orally once a day for a total of 21 days starting from 3 days after MIA administration.
Histopathological analysis of knee joint tissue was performed using the same model as that in Experimental Example 1. For histopathological analysis, Safranin 0 staining was performed, and two evaluators scored the severity of osteoarthritis according to the following evaluation criteria. As the analysis criteria, OARSI and total Mankin scores were analyzed. The OARSI analysis criteria were scored as follows: 0: normal cartilage surface; 1: cartilage surface is normal but cell death is found; 2: disruption of the cartilage surface and fibrosis of the surface layer; 3: splitting along the longitudinal axis of cartilage; 4: damage and infiltration to the middle part of cartilage; 5: exposure of stromal bone area; and 6: complete cartilage damage and formation of osteophytes. The total Mankin score analysis criteria were analyzed for four items: structure (0-6), cell (0-3), Safranin 0 (0-4), and tidemark (0-1). A higher score for each item indicates more damage to chondrocytes cells and structure.

[4] = oral once a day, 21 days, FIG. 4

**Q.** What does the source list for CCOc1ccc(C2COc3c(ccc4c3CCC(C)(C)O4)C2)c(O)c1 (centres unmarked) [Compound 2]?
**A.** MCP-1 in knee joint tissue (Dab-positive area) (MCP-1): inhibited; weight bearing following cartilage damage (MIA-induced OA rat model [1]; 25 mg/kg and 50 mg/kg orally once a day for 21 days): reduced; weight bearing efficacy compared with positive control celecoxib (MIA-induced OA rat model [1]; oral once a day, 21 days): efficacy equivalent to that of celecoxib; pain caused by cartilage damage (nociceptive pain threshold) (MIA-induced OA rat model [2]; 25 mg/kg and 50 mg/kg orally once a day for 21 days from 3 days after MIA): gradually reduced; pain suppression efficacy compared with positive control celecoxib (MIA-induced OA rat model [2]; oral once a day, 21 days): efficacy equivalent to that of the positive control, celecoxib; RIPK3 in knee joint tissue (Dab-positive area) (RIPK3): inhibited; RIPK3 inhibition efficacy compared with positive control celecoxib (RIPK3): better efficacy than celecoxib; IL-6 in knee joint tissue (Dab-positive area) (IL-6): inhibited; MMP3 in knee joint tissue (Dab-positive area) (MMP3): reduced; MMP3 reduction efficacy compared with positive control celecoxib (MMP3): better efficacy than celecoxib; histopathology score efficacy compared with positive control celecoxib ([3]; OARSI and Mankin scores, FIG. 4): efficacy equivalent to that of celecoxib; Safranin 0 staining of the cartilage tissue ([3]; oral once a day, 21 days, FIG. 3): improved; Mankin score (severity of osteoarthritis) [3, 4]: reduced; ORASI score (severity of osteoarthritis) [3, 4]: reduced
